Five compounds from patent US11634396B2 (priority 2021, dated 2023) can be followed below.

Like-named read-outs stand apart in the source and are kept apart here.

In one assay the target is kOR (OPRK1) (Homo sapiens (Human), UniProt P41145). The assay is described as follows: KOR β-Arrestin antagonist assay (Tango OPRK1-bla U2OS cells). It is filed as cell-based. An excerpt:
KOR β-Arrestin Agonist and Antagonist assays were preformed using the Tango™ OPRK1-bla U2OS cells from Invitrogen and purchased from ThermoFisher, catalog number K1576.

The next assay deals with human mOR (Homo sapiens (Human), UniProt P35372). The experiment in a line: cell-based.
For another assay, the target named is human dOR (Homo sapiens (Human), UniProt P41143). The assay is described as follows: cell-based. To be noted: dOR cAMP Agonist Assay EC50, CHO Tag-lite human dOR stable cell line; forskolin.
[1] abbreviates: CHO Tag-lite human mOR stable cell line, forskolin 4 μM and DAMGO at EC90, read-out: mOR cAMP Antagonist Assay IC50.

By IC50 is commonly meant the concentration that inhibits the measured activity by half. One may read the EC50 as the concentration at which the effect is half-maximal.

Sequence of human dOR (P41143 whole entry): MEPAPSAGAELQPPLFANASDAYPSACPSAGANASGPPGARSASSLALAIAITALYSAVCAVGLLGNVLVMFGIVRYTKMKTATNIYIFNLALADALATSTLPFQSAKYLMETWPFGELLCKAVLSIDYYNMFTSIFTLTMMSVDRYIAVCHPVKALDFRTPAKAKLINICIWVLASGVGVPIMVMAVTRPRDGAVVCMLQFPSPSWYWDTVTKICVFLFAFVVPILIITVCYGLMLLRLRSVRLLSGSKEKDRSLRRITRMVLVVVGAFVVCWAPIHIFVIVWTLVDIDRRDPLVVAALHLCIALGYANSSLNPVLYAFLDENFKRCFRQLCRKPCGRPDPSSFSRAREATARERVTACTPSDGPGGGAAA
Sequence of kOR (OPRK1) (P41145 whole entry): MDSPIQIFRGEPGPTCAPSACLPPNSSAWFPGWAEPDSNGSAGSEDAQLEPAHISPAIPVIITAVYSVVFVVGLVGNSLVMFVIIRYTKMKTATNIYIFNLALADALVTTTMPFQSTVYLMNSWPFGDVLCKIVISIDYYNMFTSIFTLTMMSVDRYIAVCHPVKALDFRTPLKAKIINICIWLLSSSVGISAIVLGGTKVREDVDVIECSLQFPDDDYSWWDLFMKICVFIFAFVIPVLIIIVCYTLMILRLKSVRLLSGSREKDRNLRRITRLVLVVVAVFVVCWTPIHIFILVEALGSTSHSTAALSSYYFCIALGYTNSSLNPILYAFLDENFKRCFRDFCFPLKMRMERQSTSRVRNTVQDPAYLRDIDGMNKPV
Sequence of human mOR (P35372 whole entry): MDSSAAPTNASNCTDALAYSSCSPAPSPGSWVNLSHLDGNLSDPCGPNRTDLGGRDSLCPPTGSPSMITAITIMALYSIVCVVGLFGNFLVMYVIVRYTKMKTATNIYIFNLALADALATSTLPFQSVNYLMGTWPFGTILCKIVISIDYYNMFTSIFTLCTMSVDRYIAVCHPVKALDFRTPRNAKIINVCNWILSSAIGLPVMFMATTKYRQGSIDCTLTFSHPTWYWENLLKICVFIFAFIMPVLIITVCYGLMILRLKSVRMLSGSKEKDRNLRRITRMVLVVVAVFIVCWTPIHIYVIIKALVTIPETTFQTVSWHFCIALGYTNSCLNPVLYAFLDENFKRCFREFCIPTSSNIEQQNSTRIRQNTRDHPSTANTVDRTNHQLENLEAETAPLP

For `CN(C)[C@H](CNC(=O)C[C@@H](c1ccccc1)C1CC1)Cc1ccc2[nH]ncc2c1` [Compound 226, (3R)-3-cyclopropyl-N-[(2S)-2-(dimethylamino)-3-(1H-indazol-5-yl)propyl]-3-phenylpropanamide], the IC50 against kOR (OPRK1) and on human mOR (setting [1]) was less than 300 nM in each case. Moreover, the EC50 on human dOR lay in the range of 300 to 3000 nM.

As to `CN(C)[C@H](CNC(=O)C[C@H](c1ccccc1)C1CC1)Cc1ccc2[nH]ncc2c1` [Compound 227, (3S)-3-cyclopropyl-N-[(2S)-2-(dimethylamino)-3-(1H-indazol-5-yl)propyl]-3-phenylpropanamide], the IC50 against kOR (OPRK1) is 300 to 3000 nM; on human mOR (setting [1]) it was less than 300 nM. The EC50 at human dOR lay in the range of 300 to 3000 nM.

Turning to `Cc1cc(O)cc(C)c1C[C@@H](CNC(=O)C[C@H](c1ccccc1)C1CC1)N(C)C` [Compound 251, (S)-3-cyclopropyl-N-((S)-2-(dimethylamino)-3-(4-hydroxy-2,6-dimethylphenyl)propyl)-3-phenylpropanamide], the IC50 at kOR (OPRK1) and at human mOR (setting [1]) was less than 300 nM in each case. The EC50 on human dOR was greater than 3000 nM.

Consider `CN(C)[C@H](CNC(=O)C[C@@H](c1ccccc1)C1CC1)Cc1ccc(O)cc1` [Compound 318, (R)-3-cyclopropyl-N-((S)-2-(dimethylamino)-3-(4-hydroxyphenyl)propyl)-3-phenylpropanamide], for which the IC50 at kOR (OPRK1) and at human mOR was less than 300 nM throughout. Besides, the concentration giving a half-maximal response (EC50) on human dOR is less than 300 nM.

As for `CN(C)[C@H](CNC(=O)C[C@H](c1ccccc1)C1CC1)Cc1ccc(O)cc1` [Compound 319, (S)-3-cyclopropyl-N-((S)-2-(dimethylamino)-3-(4-hydroxyphenyl)propyl)-3-phenylpropanamide], the IC50 against kOR (OPRK1) was less than 300 nM; on human mOR (setting [1]) it was greater than 3000 nM. Further, on human dOR, the 50% effective concentration (EC50) was less than 300 nM.
